Target: T1, AtCNGC10 (AtCNGC10-GFP) (Arabidopsis thaliana, UniProt Q9LNJ0)
T1 construct: gene CNGC10; full-length cDNA fused to EGFP (pNC10kozG) or to EGFP and FLAG (pTGC10F), transiently expressed in HEK293
T1 sequence (Q9LNJ0 1-711): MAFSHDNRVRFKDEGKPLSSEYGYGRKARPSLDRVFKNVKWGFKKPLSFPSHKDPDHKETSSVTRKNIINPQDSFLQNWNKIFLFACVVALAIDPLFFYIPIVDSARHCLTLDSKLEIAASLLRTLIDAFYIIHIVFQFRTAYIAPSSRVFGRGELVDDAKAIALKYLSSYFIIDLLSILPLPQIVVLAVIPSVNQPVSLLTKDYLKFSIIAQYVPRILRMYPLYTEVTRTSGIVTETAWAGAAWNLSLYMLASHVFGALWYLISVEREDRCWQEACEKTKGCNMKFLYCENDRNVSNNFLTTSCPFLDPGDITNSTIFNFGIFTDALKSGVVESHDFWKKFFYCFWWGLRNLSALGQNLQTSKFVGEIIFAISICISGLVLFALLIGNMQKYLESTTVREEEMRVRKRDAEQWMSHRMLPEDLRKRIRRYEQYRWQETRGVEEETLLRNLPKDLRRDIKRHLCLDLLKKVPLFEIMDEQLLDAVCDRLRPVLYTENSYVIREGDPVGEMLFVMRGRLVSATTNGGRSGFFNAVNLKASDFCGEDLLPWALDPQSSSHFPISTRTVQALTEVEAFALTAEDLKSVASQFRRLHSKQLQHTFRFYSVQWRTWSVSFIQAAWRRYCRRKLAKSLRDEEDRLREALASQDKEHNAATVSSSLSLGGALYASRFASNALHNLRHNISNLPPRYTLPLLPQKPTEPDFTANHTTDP
Test: whole-cell patch clamp, HEK293
Type: cell-based
Settings: 100 uM in bath; 145 mM K+ out / 145 mM N-methyl-D-glucamine in; pH 7.4 bath, 25 C; activator; control was non-transfected cells, no record without the nucleotide described

## CCCC(=O)Nc1nc2c(ncn2[C@@H]2O[C@@H]3COP(=O)(O)O[C@H]3[C@H]2OC(=O)CCC)c(=O)[nH]1 [dibutyryl cGMP]
  whole-cell patch clamp, HEK293: heterologously expressed AtCNGC10 conducted significant inward K^+ currents with the application of dibutyryl cGMP
